In PubChem BioAssay AID1259407 (Chemical Carcinogenesis Research Information System (CCRIS), 2018):
Active and inactive are the calls of the source. No rule for the calls is given here.

System: CCRIS mutagenicity, Ames/micronucleus/aberration tests
Assay: CCRIS mutagenicity studies
[1] = Test System: AMES SALMONELLA TYPHIMURIUM, Strain/Indicator: TA98, Metabolic Activation: NONE, Method: PREINCUBATION
[2] = Test System: AMES SALMONELLA TYPHIMURIUM, Strain/Indicator: TA100, Metabolic Activation: NONE, Method: PREINCUBATION
[3] = Test System: AMES SALMONELLA TYPHIMURIUM, Strain/Indicator: TA100, Metabolic Activation: RAT, LIVER, S-9, PCB, Method: PREINCUBATION
[4] = Test System: AMES SALMONELLA TYPHIMURIUM, Strain/Indicator: TA100, Metabolic Activation: NONE, Method: STANDARD PLATE
[5] = Test System: AMES SALMONELLA TYPHIMURIUM, Strain/Indicator: TA1535, Metabolic Activation: NONE, Method: PREINCUBATION
[6] = Test System: AMES SALMONELLA TYPHIMURIUM, Strain/Indicator: TA1537, Metabolic Activation: NONE, Method: PREINCUBATION
[7] = Test System: AMES SALMONELLA TYPHIMURIUM, Strain/Indicator: TA98, Metabolic Activation: RAT, LIVER, S-9, AROCLOR 1254, Method: PREINCUBATION
[8] = Test System: AMES SALMONELLA TYPHIMURIUM, Strain/Indicator: TA100, Metabolic Activation: RAT, LIVER, S-9, AROCLOR 1254, Method: PREINCUBATION

CN(C)Cc1ccccc1
mutagenic call [1]: inactive; negative
mutagenic call (Test System: AMES SALMONELLA TYPHIMURIUM, Strain/Indicator: TA98, Metabolic Activation: RAT, LIVER, S-9, PCB, Method: PREINCUBATION): inactive; negative
mutagenic call [2]: inactive; negative
mutagenic call [3]: inactive; negative

OCCN(CCO)c1ccc2ccccc2c1
mutagenic call [4]: inactive; negative
mutagenic call (Test System: AMES SALMONELLA TYPHIMURIUM, Strain/Indicator: TA100, Metabolic Activation: RAT, LIVER, S-9, AROCLOR (10%), Method: STANDARD PLATE): active; positive

Cc1cccc(OC(=O)N(C)N=O)c1
mutagenic call (Test System: E. COLI WP2, Strain/Indicator: WP2, Metabolic Activation: NONE, Method: STANDARD PLATE): active; positive

C=CCNCC=C
mutagenic call (Test System: AMES SALMONELLA TYPHIMURIUM, Strain/Indicator: TA98, Metabolic Activation: HAMSTER, LIVER, S-9, AROCLOR 1254 (10%), Method: PREINCUBATION): inactive; negative
mutagenic call [1]: inactive; negative
mutagenic call (Test System: AMES SALMONELLA TYPHIMURIUM, Strain/Indicator: TA98, Metabolic Activation: RAT, LIVER, S-9, AROCLOR 1254 (10%), Method: PREINCUBATION): inactive; negative
mutagenic call (Test System: AMES SALMONELLA TYPHIMURIUM, Strain/Indicator: TA100, Metabolic Activation: HAMSTER, LIVER, S-9, AROCLOR 1254 (10%), Method: PREINCUBATION): inactive; negative
mutagenic call [2]: inactive; negative
mutagenic call (Test System: AMES SALMONELLA TYPHIMURIUM, Strain/Indicator: TA100, Metabolic Activation: RAT, LIVER, S-9, AROCLOR 1254 (10%), Method: PREINCUBATION): inactive; negative
mutagenic call (Test System: AMES SALMONELLA TYPHIMURIUM, Strain/Indicator: TA1535, Metabolic Activation: HAMSTER, LIVER, S-9, AROCLOR 1254 (10%), Method: PREINCUBATION): inactive; negative
mutagenic call [5]: inactive; negative
mutagenic call (Test System: AMES SALMONELLA TYPHIMURIUM, Strain/Indicator: TA1535, Metabolic Activation: RAT, LIVER, S-9, AROCLOR 1254 (10%), Method: PREINCUBATION): inactive; negative
mutagenic call (Test System: AMES SALMONELLA TYPHIMURIUM, Strain/Indicator: TA1537, Metabolic Activation: HAMSTER, LIVER, S-9, AROCLOR 1254 (10%), Method: PREINCUBATION): inactive; negative
mutagenic call [6]: inactive; negative
mutagenic call (Test System: AMES SALMONELLA TYPHIMURIUM, Strain/Indicator: TA1537, Metabolic Activation: RAT, LIVER, S-9, AROCLOR 1254 (10%), Method: PREINCUBATION): inactive; negative

CCCCN1C2c3ccccc3-c3ccccc3C21 (centres undefined)
mutagenic call [4]: active; positive
mutagenic call (Test System: CHINESE HAMSTER V-79, Strain/Indicator: V-79/6-THIOGUANINE, Metabolic Activation: NONE, Method: STANDARD PLATE): inactive; negative

CC1=CC(=O)c2c(O)c3c(c(O)c2C1=O)C1C(O)C(C3=O)C23C(=O)c4c(O)c(C)cc(O)c4C(O)=C2C(=O)CC(O)C13 (centres undefined)
mutagenic call (Test System: UDS RODENT HEPATOCYTES, Strain/Indicator: THY INCORP, Metabolic Activation: NONE, Method: AUTORADIOGRAPHY): inactive; negative

C1COCOC1
mutagenic call (Test System: AMES SALMONELLA TYPHIMURIUM, Strain/Indicator: TA98, Metabolic Activation: HAMSTER, LIVER, S-9, AROCLOR 1254, Method: PREINCUBATION): inactive; negative
mutagenic call [1]: inactive; negative
mutagenic call [7]: inactive; negative
mutagenic call (Test System: AMES SALMONELLA TYPHIMURIUM, Strain/Indicator: TA100, Metabolic Activation: HAMSTER, LIVER, S-9, AROCLOR 1254, Method: PREINCUBATION): inactive; negative
mutagenic call [2]: inactive; negative
mutagenic call [8]: inactive; negative
mutagenic call (Test System: AMES SALMONELLA TYPHIMURIUM, Strain/Indicator: TA1535, Metabolic Activation: HAMSTER, LIVER, S-9, AROCLOR 1254, Method: PREINCUBATION): inactive; negative
mutagenic call [5]: inactive; negative
mutagenic call (Test System: AMES SALMONELLA TYPHIMURIUM, Strain/Indicator: TA1535, Metabolic Activation: RAT, LIVER, S-9, AROCLOR 1254, Method: PREINCUBATION): inactive; negative
mutagenic call (Test System: AMES SALMONELLA TYPHIMURIUM, Strain/Indicator: TA1537, Metabolic Activation: HAMSTER, LIVER, S-9, AROCLOR 1254, Method: PREINCUBATION): inactive; negative
mutagenic call [6]: inactive; negative
mutagenic call (Test System: AMES SALMONELLA TYPHIMURIUM, Strain/Indicator: TA1537, Metabolic Activation: RAT, LIVER, S-9, AROCLOR 1254, Method: PREINCUBATION): inactive; negative

O=[N+]([O-])c1c2ccccc2c([N+](=O)[O-])c2ccccc12
mutagenic call (Test System: AMES SALMONELLA TYPHIMURIUM, Strain/Indicator: TA98, Metabolic Activation: NONE, Method: STANDARD PLATE): inactive; negative

CCCCN(C[C@H](CO)Cc1ccccc1)N=O
mutagenic call [2]: inactive; negative
mutagenic call [3]: active; positive

O=[N+]([O-])c1ccc(Cl)cc1Cl
mutagenic call (End Point: IN VITRO CHROMOSOMAL ABERRATIONS, Test System: CHL CELLS, Metabolic Activation: RAT, LIVER, S-9, SODIUM PHENOBARBITAL AND 5,6-BENZOFLAVONE): active; positive (structural changes); authors report equivocal results for ploidy chang
mutagenic call [1]: inactive; negative
mutagenic call (Test System: AMES SALMONELLA TYPHIMURIUM, Strain/Indicator: TA98, Metabolic Activation: RAT, LIVER, S-9, KANECHLOR 500, Method: PREINCUBATION): inactive; negative
mutagenic call [2]: active; positive
mutagenic call [4]: inactive; negative
mutagenic call (Test System: AMES SALMONELLA TYPHIMURIUM, Strain/Indicator: TA100, Metabolic Activation: RAT LIVER S-9, PHENOBARBITAL AND BETA-NAPHTHOFLAVONE, Method: PREINCUBATION): active; positive
mutagenic call (Test System: AMES SALMONELLA TYPHIMURIUM, Strain/Indicator: TA100, Metabolic Activation: RAT, LIVER, S-9, KANECHLOR 500, Method: PREINCUBATION): active; positive
mutagenic call (Test System: AMES SALMONELLA TYPHIMURIUM, Strain/Indicator: TA1535, Metabolic Activation: RAT LIVER S-9, PHENOBARBITAL AND BETA-NAPHTHOFLAVONE, Method: PREINCUBATION): inactive; negative
mutagenic call (Test System: AMES SALMONELLA TYPHIMURIUM, Strain/Indicator: TA1537, Metabolic Activation: RAT LIVER S-9, PHENOBARBITAL AND BETA-NAPHTHOFLAVONE, Method: PREINCUBATION): inactive; negative
mutagenic call (Test System: E.COLI, Strain/Indicator: WP2UVRA, Metabolic Activation: NONE, Method: PREINCUBATION): inactive; negative
mutagenic call (Test System: E.COLI, Strain/Indicator: WP2UVRA, Metabolic Activation: RAT LIVER S-9, PHENOBARBITAL AND BETA-NAPHTHOFLAVONE, Method: PREINCUBATION): inactive; negative

Cc1cnc(C)c(C)n1
mutagenic call [1]: inactive; negative
mutagenic call [7]: inactive; negative
mutagenic call [2]: inactive; negative
mutagenic call [8]: inactive; negative
mutagenic call (Test System: AMES SALMONELLA TYPHIMURIUM, Strain/Indicator: TA102, Metabolic Activation: NONE, Method: PREINCUBATION): inactive; negative
mutagenic call (Test System: AMES SALMONELLA TYPHIMURIUM, Strain/Indicator: TA102, Metabolic Activation: RAT, LIVER, S-9, AROCLOR 1254, Method: PREINCUBATION): inactive; negative
